Data set [1] is described as follows: Heating of crystalline forms, analysed by x-ray powder diffraction. It counts as physicochemical. To be noted: for crystalline form after heating in an oven: about 30 minutes at about 100° C.; for chemical decomposition on heating: heating/drying at about 100° C. On the procedure: X-ray diffraction data were acquired using a Philips powder X-ray diffractometer, Goniometer model 1050/70 at a scanning speed of 2° per minute, with a CUKα radiation of λ=1.5418 Å. The sample was gently ground and dusted over a zero background quartz plate to give a thin layer.
Forms V and VI convert into modafinil Form I upon gentle heating to about 80° C. or above.
Modafinil Form I may be separated from solvents conventionally by filtering or decanting and then drying.
By Heating Modafinil Forms V or VI A small aliquot of Modafinil Forms V and VI are heated separately, for about 30 minutes, in an oven at about 100° C.

The format of data set [2] is physicochemical. Conditions: for crystalline form conversion when suspended in water: time and temperature not stated; for crystalline form after suspension in distilled water: distilled water pH about 5.9, stirred about 24 hours at about 37° C.

Turning to `NC(=O)C[S+]([O-])C(c1ccccc1)c1ccccc1` (racemic) [Form V, (±) 2-[(Diphenylmethyl)sulfinyl]acetamide], in data set [1], the “crystalline form after heating in an oven” value is “determined to be Form I” and the “chemical decomposition on heating” value is listed as “without significant decomposition”. In the case of `NC(=O)C[S+]([O-])C(c1ccccc1)c1ccccc1` (racemic) [Form I, (±) 2-[(Diphenylmethyl)sulfinyl]acetamide, reference compound], the “crystalline form after drying at elevated temperature” value in data set [1] (dried at a temperature as high as 100° C.) is on record as “without converting to another crystalline or amorphous form”. For the same compound, the “chemical decomposition on heating” value in data set [1] is given as “without undergoing significant chemical decomposition”. On to `NC(=O)C[S+]([O-])C(c1ccccc1)c1ccccc1` (racemic) [Form II, (±) 2-[(Diphenylmethyl)sulfinyl]acetamide], for which the “crystalline form conversion when suspended in water” value in data set [2] is reported as “converted into Form I modafinil”. In the case of `NC(=O)C[S+]([O-])C(c1ccccc1)c1ccccc1` (racemic) [Form III, (±) 2-[(Diphenylmethyl)sulfinyl]acetamide], in data set [2], the “crystalline form after suspension in distilled water” value is reported as “determined to be modafinil Form II” and the “crystalline form conversion when suspended in water” value was “converts into modafinil Form II”. Regarding `NC(=O)C[S+]([O-])C(c1ccccc1)c1ccccc1` (racemic) [Form IV, (±) 2-[(Diphenylmethyl)sulfinyl]acetamide], the “crystalline form after suspension in distilled water” value in data set [2] was “determined to be modafinil Form I”. Consider `NC(=O)C[S+]([O-])C(c1ccccc1)c1ccccc1` (racemic) [Form VI, (±) 2-[(Diphenylmethyl)sulfinyl]acetamide], for which, in data set [1], the “crystalline form after heating in an oven” value is listed as “determined to be Form I” and the “chemical decomposition on heating” value is reported as “without significant decomposition”.

Source of the values: patent publication US7235691B2, “Crystalline forms of modafinil” (priority 2000, dated 2007).
